Literature values in US8013163B2 (Astex Therapeutics Limited, priority 2005, dated 2011).

Tested on: malignant cells from B-cell chronic lymphocytic leukemia (B-CLL)
Conditions: in vitro; cited from earlier work

CN1CC[C@H](c2c(O)cc(O)c3c(=O)cc(-c4ccccc4Cl)oc23)[C@H](O)C1 [Flavopiridol]
induction of apoptosis: induce in vitro apoptosis
